Like-named read-outs stand apart in the source and are kept apart here.
Assays:
Assay type in all cases: cell-based, mouse
iNOS mRNA expression = assay: RT-PCR analysis of LPS-induced iNOS mRNA expression; details: LPS treatment
RAW 264.7 cells = assay: Cell viability, MTT assay; design: concentration or dose not given beside the values
Protocol: (§1) Mouse macrophage cell line (RAW 264.7) was obtained from Bioresource Collection and Research Center (BCRC 60001) and cultured at 37 °C in Dulbecco’s Modified Eagle’s Medium (DMEM) supplemented with 10% fetal bovine serum (Gibco), 4.5 g/L glucose, 4 mM glutamine, penicillin (100 units/mL), and streptomycin (100 μg/mL) in a humidified atmosphere in a 5% CO2 incubator. The cells were treated with 10, 25, 50 μM natural products in the presence of 1 μg/mL LPS (lipopolysaccharide, Sigma-Aldrich, St. Louis, MO, USA) for 20 h. The concentration of NO in culture supernatants was determined as nitrite, a major stable product of NO, by Griess reagent assay, and cell viabilities were determined using the MTT assay as described previously.

[1] = Cell viability, MTT assay; design: concentration or dose not given beside the values; details: mouse
Protocol: as §1

[2] = test system: LPS-activated NO production in RAW 264.7 macrophages; assay: Inhibition of LPS-induced NO production (nitrite, Griess reagent assay); details: for IC50: Mus musculus, read-out: IC50 NO; for NO inhibition (in words): LPS-induced NO production in RAW 264.7
Protocol: as §1

[3] = RAW 264.7 macrophage cells, RAW 264.7, MTT assay, read-out: cell viability
[4] = RAW 264.7 macrophage cells, RAW 264.7 macrophages, MTT assay, mean ± SEM, read-out: Cell Viability (% Control)
[5] = RAW264.7, RAW 264.7 macrophages, 1 μg/mL LPS, 20 h, mean ± SEM (n = 4) of 3 independent experiments

Compound	IC50 [2, 5] [µM]	effect on LPS-increased iNOS mRNA expression (iNOS mRNA expression)	viability at 20 h [1, 3] [%]	viability at 20 h [1, 4] [%]	NO inhibition (in words) [2]	further results
CC(C)=CCCC1(C)C=Cc2cc(-c3ccc(O)cc3)cc(O)c2O1 (stereo not drawn) [H]					showed inhibitory activities	
CC(O)c1ccc2c(c1)CCC1[C@](C)(C(=O)O)CCC[C@]21C (stereo partly drawn) [E]					showed inhibitory activities	
C[C@@H]1[C@@H](O)CC2C(C)(C)C3CC21CC[C@@]3(C)O (relative stereo) [Compound 10, (2S*,3S*,6R*)-3,6,8,8-tetramethyloctahydro-1H-3a,7-methanoazulene-2,6-diol]	> 100			89.5 ± 2.15		
CC1(C)CCC2C(=CC1=O)CCC1C(C)(C(=O)O)CCCC21C (stereo not drawn) [Compound 6, 12(13→15)abeo-13-oxo-8(14)-abietene-18-oic acid]	24.8 ± 12.9		< 80	76.3 ± 5.48		
CC(C)c1cc2c(c(O)c1O)[C@@]1(C)CCC(=O)C(C)(C)C1[C@@H](O)[C@H]2O (stereo partly drawn) [Compound 3, 6α,7α,11-trihydroxy-3-oxoferrugiol]		inhibited this increase in a concentration-dependent manner			showed inhibitory activities	cell viability (RAW 264.7 cells; mouse, 20 h): > 95%; viability at 20 h ([1]; Cell Viability (% Control)): 95.5 ± 3.39%; viability at 20 h ([1]; cell viability): > 80%; IC50 ([2]; RAW264.7, 20 h): 17.5 ± 1.85 µM
CC(=O)OCC(C)(O)C1CCC(C)C12CC=C(C)CC2 (stereo not drawn) [Compound 2, 12-acetoxy-11-hydroxyacora-3-ene]	34.2 ± 1.97			99.6 ± 5.53	less effective NO inhibition	
CC1(C)CCc2cc(-c3ccc(O)cc3)cc(O)c2O1 [I]					showed inhibitory activities	

The next lines start with results.

IC50 [2, 5] [µM]	Compound	effect on LPS-increased iNOS mRNA expression (iNOS mRNA expression)	viability at 20 h [1, 3] [%]	viability at 20 h [1, 4] [%]	NO inhibition (in words) [2]	further results
12.3 ± 4.97	CC(O)c1ccc2c(c1)CCC1[C@](C)(C(=O)O)CCC[C@]21C (relative stereo) [Compound 5, (1R*,4aS*)-7-(1-hydroxyethyl)-1,4a-dimethyl-1,2,3,4,4a,9,10,10a-octahydrophenanthrene-1-carboxylic acid]	inhibited this increase in a concentration-dependent manner	> 80	82.2 ± 3.21		cell viability (RAW 264.7 cells; RAW 264.7, MTT assay): > 95%
35.9 ± 2.34	O=c1c(O)c(-c2ccc(O)c(O)c2)oc2cc(O)cc(O)c12 [Quercetin, quercetin, reference compound]			94.1 ± 1.32		
12.8 ± 4.82	COc1cc(CCCOC(C)=O)cc(OC)c1O [Compound 7, amycolataiwanensin G]		< 80	56.3 ± 3.91		
17.8 ± 1.13	CC(C)=CCCC1(C)C=Cc2cc(-c3ccc(O)cc3)cc(O)c2O1 (stereo not drawn) [Compound 8, amycolataiwanensin H]	inhibited this increase in a concentration-dependent manner	> 80	95.9 ± 1.32		cell viability (RAW 264.7 cells; RAW 264.7, MTT assay): > 95%
24.8 ± 1.63	CC(C)C1=C(O)C(=O)C2=C(CCC3C(C)(C)[C@@H](O)CC[C@]23C)C1=O (stereo partly drawn) [Compound 4, amycolataiwanensin D]			91.1 ± 4.22		
13.3 ± 0.51	CC1(C)CCc2cc(-c3ccc(O)cc3)cc(O)c2O1 [Compound 9, 6-(4-hydroxyphenyl)-2,2-dimethylchroman-8-ol]	inhibited this increase in a concentration-dependent manner	> 80	98 ± 1.53		cell viability (RAW 264.7 cells; RAW 264.7, MTT assay): > 95%
